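Results reflect a 48-hour exposure of cells in 96-well plates to compound at five concentrations. TGI: concentration producing complete growth inhibition.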
Assays:
Assay in all cases: inhibition of tumour cell growth, NCI panel, 48 h
[1] = test system: 786-0 renal
[2] = test system: OVCAR-3 ovarian
[3] = test system: HT29 colon
[4] = test system: IGROV1 ovarian
[5] = test system: A498 renal
[6] = test system: T-47D breast
[7] = test system: SF-268 CNS
[8] = test system: UACC-257 melanoma
[9] = test system: SN12C renal
[10] = test system: NCI-H522 lung
[11] = test system: OVCAR-8 ovarian
[12] = test system: NCI/ADR-RES ovarian
[13] = test system: OVCAR-4 ovarian
[14] = test system: NCI-H23 lung
[15] = test system: K-562 leukemia
[16] = test system: SNB-75 CNS
[17] = test system: HOP-62 NSCLC
[18] = test system: SK-MEL-2 melanoma
[19] = test system: EKVX NSCLC
[20] = test system: HCC-2998 colon
[21] = test system: NCI-H460 lung
[22] = test system: HCT-116 colon
[23] = test system: MOLT-4 leukemia
[24] = test system: TK-10 renal
[25] = test system: UACC-62 melanoma
[26] = test system: SF-295 CNS
[27] = test system: HCT-15 colon
[28] = test system: OVCAR-5 ovarian
[29] = test system: A549 NSCLC
[30] = test system: BT-549 breast
[31] = test system: U251 CNS
[32] = test system: HS 578T breast
[33] = test system: DU-145 prostate
[34] = test system: SF-539 CNS
[35] = test system: SK-MEL-5 melanoma
[36] = test system: HL-60(TB) leukemia
[37] = test system: CAKI-1 renal
[38] = test system: SNB-19 CNS
[39] = test system: NCI-H226 lung
[40] = test system: SR leukemia
[41] = test system: HOP-92 NSCLC
[42] = test system: MCF7 breast
[43] = test system: RXF 393 renal
[44] = test system: MDA-MB-435
[45] = test system: PC-3 prostate
[46] = test system: SK-MEL-28 melanoma
[47] = test system: MDA-N
[48] = test system: LOX IMVI melanoma
[49] = test system: KM12 colon
[50] = test system: RPMI-8226 leukemia
[51] = test system: UO-31 renal
[52] = test system: SW-620 colon
[53] = test system: COLO 205 colon
[54] = test system: M14 melanoma
[55] = test system: ACHN renal
[56] = test system: MDA-MB-231 breast
[57] = test system: SK-OV-3 ovarian
[58] = test system: MALME-3M melanoma
[59] = test system: CCRF-CEM leukemia

## N#Cc1ccc(-c2nc3c(N)nc(-c4ccccc4)nc3o2)cc1
[1]
  TGI: > 100 µM
[2]
  TGI: > 100 µM
[3]
  TGI: > 100 µM
[4]
  TGI: > 100 µM
[5]
  TGI: > 100 µM
[6]
  TGI: > 100 µM
[7]
  TGI: > 100 µM
[8]
  TGI: > 100 µM
[9]
  TGI: > 100 µM
[10]
  TGI: > 100 µM
[11]
  TGI: > 100 µM
[12]
  TGI: > 100 µM
[13]
  TGI: > 100 µM
[14]
  TGI: > 100 µM
[15]
  TGI: > 100 µM
[16]
  TGI: > 100 µM
[17]
  TGI: > 100 µM
[18]
  TGI: > 100 µM
[19]
  TGI: > 100 µM
[20]
  TGI: > 100 µM
[21]
  TGI: > 100 µM
[22]
  TGI: > 100 µM
[23]
  TGI: > 100 µM
[24]
  TGI: > 100 µM
[25]
  TGI: > 100 µM
[26]
  TGI: > 100 µM
[27]
  TGI: > 100 µM
[28]
  TGI: > 100 µM
[29]
  TGI: > 100 µM
[30]
  TGI: > 100 µM
[31]
  TGI: 27.7 µM
[32]
  TGI: > 100 µM
[33]
  TGI: > 100 µM
[34]
  TGI: 22.3 µM
[35]
  TGI: > 100 µM
[36]
  TGI: > 100 µM
[37]
  TGI: > 100 µM
[38]
  TGI: > 100 µM
[39]
  TGI: > 100 µM
[40]
  TGI: > 100 µM
[41]
  TGI: > 100 µM
[42]
  TGI: > 100 µM
[43]
  TGI: > 100 µM
[44]
  TGI: > 100 µM
[45]
  TGI: > 100 µM
[46]
  TGI: > 100 µM
[47]
  TGI: > 100 µM
[48]
  TGI: > 100 µM
[49]
  TGI: > 100 µM
[50]
  TGI: > 100 µM
[51]
  TGI: > 100 µM
[52]
  TGI: > 100 µM
[53]
  TGI: > 100 µM
[54]
  TGI: > 100 µM
[55]
  TGI: > 100 µM
[56]
  TGI: 46.2 µM

## CN(CC(=O)O)Cc1c(O)c(Cl)cc(Cl)c1Cl
[1]
  TGI: > 100 µM
[2]
  TGI: 38.8 µM
[3]
  TGI: > 100 µM
[4]
  TGI: > 100 µM
[57]
  TGI: > 100 µM
[5]
  TGI: > 100 µM
[6]
  TGI: > 100 µM
[7]
  TGI: > 100 µM
[58]
  TGI: > 100 µM
[8]
  TGI: 97.5 µM
[9]
  TGI: > 100 µM
[10]
  TGI: > 100 µM
[11]
  TGI: > 100 µM
[12]
  TGI: > 100 µM
[13]
  TGI: > 100 µM
[14]
  TGI: > 100 µM
[16]
  TGI: > 100 µM
[17]
  TGI: > 100 µM
[18]
  TGI: > 100 µM
[19]
  TGI: > 100 µM
[21]
  TGI: 75.4 µM
[22]
  TGI: > 100 µM
[24]
  TGI: > 100 µM
[25]
  TGI: 77.3 µM
[26]
  TGI: > 100 µM
[27]
  TGI: > 100 µM
[28]
  TGI: > 100 µM
[29]
  TGI: > 100 µM
[30]
  TGI: > 100 µM
[31]
  TGI: > 100 µM
[32]
  TGI: > 100 µM
[33]
  TGI: > 100 µM
[34]
  TGI: > 100 µM
[35]
  TGI: > 100 µM
[36]
  TGI: 44.6 µM
[37]
  TGI: > 100 µM
[59]
  TGI: 50.4 µM
[38]
  TGI: > 100 µM
[39]
  TGI: 92.1 µM
[40]
  TGI: 90.9 µM
[41]
  TGI: > 100 µM
[42]
  TGI: > 100 µM
[43]
  TGI: > 100 µM
[44]
  TGI: > 100 µM
[45]
  TGI: > 100 µM
[46]
  TGI: 97.4 µM
[47]
  TGI: > 100 µM
[48]
  TGI: > 100 µM
[49]
  TGI: > 100 µM
[50]
  TGI: > 100 µM
[51]
  TGI: > 100 µM
[52]
  TGI: > 100 µM
[53]
  TGI: > 100 µM
[54]
  TGI: > 100 µM
[55]
  TGI: > 100 µM
[56]
  TGI: > 100 µM

From PubChem BioAssay (NCI)
